Source: ChEMBL document CHEMBL4477225, “Development of a cell viability assay to assess drug metabolite structure-toxicity relationships” (Bioorg Med Chem Lett, 2016)

Tests used:
Details in all cases: recombinant enzyme
[1] = target: T1, Cytochrome P450 3A4 (Homo sapiens, UniProt P08684); assay: (§1) Drug activation in human Hep3B cells assessed as human CYP3A4-mediated drug metabolism-induced cytotoxicity measured as decrease in cell viability at 70.3 uM pre-incubated with BSO for 18 hrs followed by incubation with compound for 3 hrs in presence of NADPH measured after 24 hrs in absence of compound, CYP3A4 and NADPH by cell titer-glo luminescence assay relative to BSO alone; type: ADME, cell-based
[2] = target: T2, Cytochrome P450 2D6 (Homo sapiens, UniProt P10635); assay: as §1, with “CYP2D6-mediated” for “CYP3A4-mediated”, “52.1” for “70.3”; type: ADME, cell-based
[3] = target: T3, Cytochrome P450 2C9 (Homo sapiens, UniProt P11712); assay: as §1, with “CYP2C9-mediated” for “CYP3A4-mediated”, “88.3” for “70.3”; type: ADME, cell-based
[4] = target: T1, Cytochrome P450 3A4; assay: as §1, with “300” for “70.3”
[5] = target: T2, Cytochrome P450 2D6; assay: as §1, with “CYP2D6-mediated” for “CYP3A4-mediated”, “300” for “70.3”
[6] = target: T3, Cytochrome P450 2C9; assay: as §1, with “CYP2C9-mediated” for “CYP3A4-mediated”, “71.3” for “70.3”; type: ADME, cell-based
[7] = target: T1, Cytochrome P450 3A4; assay: as §1, with “154.5” for “70.3”; type: ADME, cell-based
[8] = target: T2, Cytochrome P450 2D6; assay: as §1, with “CYP2D6-mediated” for “CYP3A4-mediated”, “188.9” for “70.3”; type: ADME, cell-based
[9] = target: T3, Cytochrome P450 2C9; assay: as §1, with “CYP2C9-mediated” for “CYP3A4-mediated”, “150” for “70.3”; type: ADME, cell-based
[10] = target: T1, Cytochrome P450 3A4; assay: as §1, with “16.3” for “70.3”; type: ADME, cell-based
[11] = target: T2, Cytochrome P450 2D6; assay: as §1, with “CYP2D6-mediated” for “CYP3A4-mediated”, “15.6” for “70.3”; type: ADME, cell-based
[12] = target: T3, Cytochrome P450 2C9; assay: as §1, with “CYP2C9-mediated” for “CYP3A4-mediated”, “17.1” for “70.3”; type: ADME, cell-based
[13] = target: T1, Cytochrome P450 3A4; assay: as §1, with “7.6” for “70.3”; type: ADME, cell-based
[14] = target: T2, Cytochrome P450 2D6; assay: as §1, with “CYP2D6-mediated” for “CYP3A4-mediated”, “12.2” for “70.3”; type: ADME, cell-based
[15] = target: T3, Cytochrome P450 2C9; assay: as §1, with “CYP2C9-mediated” for “CYP3A4-mediated”, “9.7” for “70.3”; type: ADME, cell-based
[16] = target: T3, Cytochrome P450 2C9; assay: as §1, with “CYP2C9-mediated” for “CYP3A4-mediated”, “34” for “70.3”; type: ADME, cell-based
[17] = target: T1, Cytochrome P450 3A4; assay: as §1, with “45.8” for “70.3”; type: ADME, cell-based
[18] = target: T2, Cytochrome P450 2D6; assay: as §1, with “CYP2D6-mediated” for “CYP3A4-mediated”, “54.3” for “70.3”; type: ADME, cell-based
[19] = target: T3, Cytochrome P450 2C9; assay: as §1, with “CYP2C9-mediated” for “CYP3A4-mediated”, “44” for “70.3”; type: ADME, cell-based
[20] = target: T1, Cytochrome P450 3A4; assay: as §1, with “53” for “70.3”; type: ADME, cell-based
[21] = target: T2, Cytochrome P450 2D6; assay: as §1, with “CYP2D6-mediated” for “CYP3A4-mediated”, “5.8” for “70.3”; type: ADME, cell-based
[22] = target: T3, Cytochrome P450 2C9; assay: as §1, with “CYP2C9-mediated” for “CYP3A4-mediated”, “47.3” for “70.3”; type: ADME, cell-based

T3 sequence (P11712 whole entry): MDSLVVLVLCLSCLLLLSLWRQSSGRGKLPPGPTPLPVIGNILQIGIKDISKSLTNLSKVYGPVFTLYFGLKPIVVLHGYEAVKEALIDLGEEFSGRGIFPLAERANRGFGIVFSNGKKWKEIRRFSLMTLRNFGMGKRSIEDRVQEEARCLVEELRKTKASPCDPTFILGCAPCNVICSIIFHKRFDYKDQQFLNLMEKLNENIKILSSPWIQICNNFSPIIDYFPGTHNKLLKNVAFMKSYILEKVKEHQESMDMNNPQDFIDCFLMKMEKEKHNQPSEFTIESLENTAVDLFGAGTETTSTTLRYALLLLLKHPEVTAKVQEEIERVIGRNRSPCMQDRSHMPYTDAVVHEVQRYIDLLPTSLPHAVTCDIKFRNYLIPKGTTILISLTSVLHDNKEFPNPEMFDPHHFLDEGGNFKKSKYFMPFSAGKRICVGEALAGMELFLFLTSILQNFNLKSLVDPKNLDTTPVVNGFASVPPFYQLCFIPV
T2 sequence (P10635 whole entry): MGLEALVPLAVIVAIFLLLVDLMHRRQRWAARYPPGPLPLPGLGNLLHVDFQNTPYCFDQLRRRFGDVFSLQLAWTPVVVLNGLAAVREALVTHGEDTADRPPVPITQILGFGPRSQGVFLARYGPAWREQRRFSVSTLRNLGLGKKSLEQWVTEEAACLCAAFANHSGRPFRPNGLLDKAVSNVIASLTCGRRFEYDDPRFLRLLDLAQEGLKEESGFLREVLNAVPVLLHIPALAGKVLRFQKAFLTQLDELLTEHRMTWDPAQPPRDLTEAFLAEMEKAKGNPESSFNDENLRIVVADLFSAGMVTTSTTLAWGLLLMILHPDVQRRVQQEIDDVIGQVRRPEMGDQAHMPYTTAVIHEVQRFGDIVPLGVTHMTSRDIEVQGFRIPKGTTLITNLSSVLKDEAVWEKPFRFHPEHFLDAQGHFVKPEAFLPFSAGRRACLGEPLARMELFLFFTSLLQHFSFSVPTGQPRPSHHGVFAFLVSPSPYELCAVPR
T1 sequence (P08684 whole entry): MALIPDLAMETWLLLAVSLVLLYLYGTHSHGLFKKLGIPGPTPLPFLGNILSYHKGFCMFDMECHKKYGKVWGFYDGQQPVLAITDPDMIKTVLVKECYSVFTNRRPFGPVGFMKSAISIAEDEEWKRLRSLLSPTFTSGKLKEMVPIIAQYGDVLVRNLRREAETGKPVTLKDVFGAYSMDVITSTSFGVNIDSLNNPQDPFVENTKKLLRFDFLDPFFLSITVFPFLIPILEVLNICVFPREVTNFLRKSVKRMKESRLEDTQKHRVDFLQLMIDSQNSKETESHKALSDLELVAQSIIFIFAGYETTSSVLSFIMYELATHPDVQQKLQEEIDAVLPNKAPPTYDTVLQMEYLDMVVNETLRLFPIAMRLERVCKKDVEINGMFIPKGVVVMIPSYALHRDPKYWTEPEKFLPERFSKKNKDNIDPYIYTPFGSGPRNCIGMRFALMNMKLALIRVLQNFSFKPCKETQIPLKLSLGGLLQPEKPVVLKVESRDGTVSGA

C=CC[C@@H]1/C=C(\C)C[C@H](C)C[C@H](OC)[C@H]2O[C@@](O)(C(=O)C(=O)N3CCCC[C@H]3C(=O)O[C@H](/C(C)=C/[C@@H]3CC[C@@H](O)[C@H](OC)C3)[C@H](C)[C@@H](O)CC1=O)[C@H](C)C[C@@H]2OC [TACROLIMUS ANHYDROUS]
fold change (FC) [1]: 1.6
fold change (FC) [2]: 2.2
fold change (FC) [3]: 1.3

CC(C(=O)O)c1cccc(Oc2ccccc2)c1 (configuration not stated) [FENOPROFEN]
FC [4]: 1
FC [5]: 1
fold change (FC) [6]: 4.2

CS(=O)(=O)CCNCc1ccc(-c2ccc3ncnc(Nc4ccc(OCc5cccc(F)c5)c(Cl)c4)c3c2)o1 [LAPATINIB]
fold change (FC) [7]: 0.3
fold change (FC) [8]: 0.2
fold change (FC) [9]: 0.3

CCc1oc2ccccc2c1C(=O)c1cc(I)c(O)c(I)c1 [BENZIODARONE]
fold change (FC) [10]: 2.2
fold change (FC) [11]: 2.3
fold change (FC) [12]: 2.1

C1CCC(C(CC2CCCCN2)C2CCCCC2)CC1 (configuration not stated) [PERHEXILINE]
fold change (FC) [13]: 0.7
fold change (FC) [14]: 0.4
fold change (FC) [15]: 0.5

CC(=O)N1CCN(c2ccc(OCC3COC(Cn4ccnc4)(c4ccc(Cl)cc4Cl)O3)cc2)CC1 (configuration not stated) [KETOCONAZOLE]
fold change (FC) [16]: 1.4

CC(C)(C)NC(=O)[C@@H]1C[C@@H]2CCCC[C@@H]2CN1C[C@@H](O)[C@H](Cc1ccccc1)NC(=O)[C@H](CC(N)=O)NC(=O)c1ccc2ccccc2n1
fold change (FC) [17]: 0.8
fold change (FC) [18]: 0.7
fold change (FC) [19]: 0.8

CCc1oc2ccccc2c1C(=O)c1ccc(O)cc1 [BENZARONE]
fold change (FC) [20]: 0.8
fold change (FC) [21]: 7.5
fold change (FC) [22]: 0.9
